For one series, the target named is T1, AtD14 (Arabidopsis thaliana, UniProt Q9SQR3).
T1 construct: The cDNA of AtD14 was introduced into pMALHis vector; MBP; His6; made in house; host or cells: E. coli BL21 (DE3)
T1 sequence (Q9SQR3 1-267): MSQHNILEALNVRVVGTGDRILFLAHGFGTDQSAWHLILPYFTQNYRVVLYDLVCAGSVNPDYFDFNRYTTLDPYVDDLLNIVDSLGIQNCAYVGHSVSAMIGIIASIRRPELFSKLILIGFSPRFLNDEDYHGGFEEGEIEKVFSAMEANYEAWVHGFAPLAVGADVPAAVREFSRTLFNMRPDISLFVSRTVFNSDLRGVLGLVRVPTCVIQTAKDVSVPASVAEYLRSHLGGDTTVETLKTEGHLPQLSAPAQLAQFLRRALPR
Briefly: Hydrolysis assay with recombinant AtD14. The class given is biochemical. Particulars: 10 μM substrate, 30°C, 60 min. Here is the method: The cDNA of AtD14 was introduced into pMALHis vector that has both MBP-tag and His6-tag. The vector was transformed in to E. coli BL21 (DE3) and the cell was precultured in LB medium containing 50 μg/ml ampicillin. Overnight cultures (10 ml) were added to fresh LB medium (1 L) containing 50 μg/ml ampicillin and it was cultured at 37°C. After OD600 reached to 0.8, the cultures were cooled at 16°C for 1 h, and then 0.1 mM IPTG was added. The culture was further incubated at 16°C for 20 h. The culture medium was centrifuged at 3,700 g and the pellet was stored at −20°C until use. The pellet was resuspended and sonicated in lysis buffer (50 mM Tris buffer (pH 8.0) containing 500 mM NaCl, 10 mM 2-mercaptoethanol, and 10% glycerol). The supernatant was purified by Ni Sepharose TM 6 Fast Flow (500 μl, Cytiva) After washing with the washing buffer (50 mM Tris buffer (pH 8.0) containing 500 mM NaCl and 20 mM imidazole), The bound protein was eluted with elution buffer (50 mM Tris buffer (pH 8.0) containing 500 mM NaCl and 200 mM imidazole). The eluate was concentrated using VIVASPIN Turbo 15 (Sartorius), and the concentration was adjusted to 5 mg/ml. The purified protein was aliquoted to the appropriate volume, immediately frozen in liquid nitrogen, and stored at −80°C until use.
Hydrolysis assays were carried out at 30°C for 60 min in 100 μl of a reaction buffer containing 0.13 pmol recombinant ShHTL7 or AtD14, 10 μM of substrate in 50 mM Phosphate-Na buffer (pH 7.0) containing 2% acetone. The enzyme reaction was stopped by addition of 100 μl of acetonitrile containing 1-naphtaleneacetic acid (NAA; 0.5 ng/μl) as an internal standard. After centrifuged at 13,000 rpm for 5 min, each sample was subjected to LC–MS/MS analysis equipped with reverse-phase column (CORTECS UPLC Phenyl 1.6 μm, ϕ2.1 × 75 mm; Waters). The concentration of remaining substrate and reaction product was calculated by using NAA as an internal standard. Detailed information about the analytical condition is described in Supplementary Table 1.

Series [1] is described as follows: Time course monitoring of degradation in hydroponic culture. It counts as physicochemical. As to conditions: 1 μM, within 1 week, pH 5.7, LC-MS/MS. The procedure: t-CASL1, c-CASL1, PPASL, and GR5 were separately added to 15 ml tubes containing hydroponic culture. The final concentration of the test compounds is 1 μM and acetone was adjusted to 0.01% (v/v). These solutions were incubated under the same conditions as branching assay. After incubation for 0, 5, 24 72, or 168 h, 495 μl of hydroponic culture containing test compounds was collected and 5 μl of NAA solution (10 μM) was added as an internal standard. The solution was extracted with ethyl acetate. The ethyl acetate phase was dried up under the nitrogen gas and dissolved in acetonitrile. These samples were subjected to LC–MS/MS analysis equipped with reverse-phase column (CORTECS UPLC Phenyl 1.6 μm, ϕ2.1 × 75 mm; Waters). Each peak area of test chemicals and internal standard was calculated, and the remaining percentage of teste chemicals was calculated. At the same time, the degradation products of test compounds (CA or PPA) were also analyzed. Detailed information about the analytical condition was described in Supplementary Table 1.

The values that follow come from article PMC9002265, “A New Series of Strigolactone Analogs Derived From Cinnamic Acids as Germination Inducers for Root Parasitic Plants” (Frontiers in Plant Science, 2022).

Each structure is given as a SMILES string.

Regarding `CC1=CC(OC(=O)/C=C\c2ccccc2)OC1=O` (centres unmarked) [c-CASL1], the “hydrolysis by AtD14” value at AtD14 is given as “can hydrolyze”. In addition, the “loss (non-enzymatic degradation) in hydroponic culture medium” value in series [1] is around 40%.
